# Reference: patent publication US20070190181A1, “Methods of treating cancer with lipid-based platinum compound forumulations administered intravenously” (priority 2005, published 2007)
# Legend:
# [1] = Nephrotoxicity at MTD (BUN and kidney pathology grading); format: in vivo; conditions: four days after injection
# Description: Nephrotoxicity. ICR mice, 7 weeks old, female, were divided into 4 groups with 3 to 4 mice in each. […] Four days after the injection, the mice were euthanized with Nembutal ip. The blood was drawn and the serum was isolated. The blood urea nitrogen (BUN) was quantitatively measured with a calorimetric method at Antech Diagnostics. Organs including duodenum, heart, kidney, liver, lung, and spleen were resected from the mice and fixed with 10% buffered Formalin. The fixed tissues were processed with standard procedure for H and E staining. A pathology expert Dr. Carman Tomos at the Memorial Sloan-Kettering Cancer Center examined kidney tissues and gave a toxicity grade to each kidney tissue sample. The grading was based on the general pathology guidelines for kidney toxicity.
# [2] = tested on: Lewis Lung cells; assay: murine Lewis lung tumor metastasis model (lung tumor weight); format: in vivo, C57B1/6 mice
# [3] = Pharmacokinetics and organ distribution of ip and iv injected L-CDDP and CDDP (platinum by ICP-MS); format: in vivo, ICR mice; conditions: 8 mg/kg
# Protocol: Pharmacokinetics and organ distribution in animals of ip and iv injected lipid-based cisplatin and cisplatin (Part II). Sixty ICR mice (female, 7 weeks old) were divided into 4 groups. They received intraperitoneal or intravenous injection of L-CDDP or CDDP, separately. The dose was 12 mg/kg for ip L-CDDP and 8 mg/kg for the rest of treatment groups. At each designed time point, three to four mice were anaesthetized with 70 mg/kg of Nembutal ip (e.g., 3, 20, and 40 min, and 2, 8, 24, 48, and 72 h). […] Organs including liver, lung, and spleen were resected from the mice. The organ samples were homogenized in distilled water (4-fold of the sample weight) and digested with nitric acid. The platinum concentration in each sample was measured by Inductively Coupled Plasma-Mass Spectrometer (ICP-MS). The pharmacokinetics profiles (FIGS. 4, 5, and 6, all Y-axes are concentration of μg platinum in one gram of tissue or fluid per mg of injected dose) and parameters (Table 4) of each formulation were simulated and calculated.
smiles,measurement,setting,value
"N.N.[Cl][Pt][Cl] [CDDP, cis diamminedichloroplatinum]",increase of BUN level compared with normal controls,"[1]; ip, p=0.04",2.1 fold
same,increase of BUN level compared with normal controls,"[1]; iv, p=0.008",6.8 fold
same,inhibition of growth of Lewis lung tumors,"[2]; inhalation therapy, nebulized 1 mg/ml, days 5, 8 and 11",did not significantly inhibit
same,inhibition of tumor growth (Lewis lung tumor weight vs saline),"[2]; three iv doses of 2 mg/kg on days 5, 8 and 11 post tumor cell injection",no significant inhibition of tumor growth
same,AUC,[3]; Liver,19.96 µg·h/g/µg
same,AUC,[3]; Lung,5.58 µg·h/g/µg
same,AUC,[3]; Spleen,8.11 µg·h/g/µg
